The text below walks through data of patent US20150005281A1, “PYRIMIDINE-2,4-DIAMINE DERIVATIVES AS KINASE INHIBITORS” (Cellzome Limited, priority 2011, published 2015).

The term IC50 denotes the point on the concentration scale where inhibition reaches its midpoint.

Holding throughout (format): binding
One assay deals with T1, JAK2 (Homo sapiens, UniProt O60674).
T1 construct: endogenous in cells; host or cells: Molt4 (ATCC CRL-1582) and Ramos (ATCC CRL-1596) cells; mixed lysate 1:2
In words: Kinobeads assay with immunodetection, JAK2. The conditions noted are these: mixed Molt4/Ramos lysate, read-out: Inhibition values (IC50) JAK2. As to the method: (§1) Determination of the Effect of the Compounds According to the Invention on Janus Kinases (JAK Family) in Kinobeads™ Assays with Immunodetection of Kinases
(§2) The compounds of the present invention as described in the previous examples were tested in a Kinobeads™ assay as described for ZAP-70 (WO-A 2007/137867). Briefly, test compounds (at various concentrations) and the affinity matrix with the immobilized aminopyrido-pyrimidine ligand 24 were added to cell lysate aliquots and allowed to bind to the proteins in the lysate sample. After the incubation time the beads with captured proteins were separated from the lysate. Bound proteins were then eluted and the presence of JAK1, JAK2, JAK3 and TYK2 was detected and quantified using specific antibodies in a dot blot procedure and the Odyssey infrared detection system. Dose response curves for individual kinases were generated and IC50 values calculated. Kinobeads™ assays for ZAP-70 (WO-A 2007/137867) and for kinase selectivity profiling (WO-A 2006/134056) have been previously described.
(§3) The affinity matrix was washed two times with 15 mL of 1×DP buffer containing 0.2% NP40 (IGEPAL® CA-630, Sigma, #13021) and then resuspended in 1×DP buffer containing 0.2% NP40 (3% beads slurry).
(§4) 5×DP buffer: 250 mM Tris-HCl pH 7.4, 25% Glycerol, 7.5 mM MgCl2, 750 mM NaCl, 5 mM Na3VO4; filter the 5×DP buffer through a 0.22 μm filter and store in aliquots at −80° C. The 5×DP buffer is diluted with H2O to 1×DP buffer containing 1 mM DTT and 25 mM NaF.
(§5) Stock solutions of test compounds were prepared in DMSO. In a 96 well plate 30 μL solution of diluted test compounds at 5 mM in DMSO were prepared. Starting with this solution a 1:3 dilution series (9 steps) was prepared. For control experiments (no test compound) a buffer containing 2% DMSO was used.
(§6) Molt4 cells (ATCC catalogue number CRL-1582) and Ramos cells (ATCC catalogue number CRL-1596) were grown in 1 L Spinner flasks (Integra Biosciences, #182101) in suspension in RPMI 1640 medium (Invitrogen, #21875-034) supplemented with 10% Fetal Bovine Serum (Invitrogen) at a density between 0.15×10^6 and 1.2×10^6 cells/mL. Cells were harvested by centrifugation, washed once with 1×PBS buffer (Invitrogen, #14190-094) and cell pellets were frozen in liquid nitrogen and subsequently stored at −80° C. Cells were homogenized in a Potter S homogenizer in lysis buffer: 50 mM Tris-HCl, 0.8% NP40, 5% glycerol, 150 mM NaCl, 1.5 mM MgCl2, 25 mM NaF, 1 mM sodium vanadate, 1 mM DTT, pH 7.5. One complete EDTA-free tablet (protease inhibitor cocktail, Roche Diagnostics, 1873580) per 25 ml, buffer was added. The material was dounced 10 times using a mechanized POTTER S, transferred to 50 mL falcon tubes, incubated for 30 minutes on ice and spun down for 10 minutes at 20,000 g at 4° C. (10,000 rpm in Sorvall SLA600, precooled). The supernatant was transferred to an ultracentrifuge (UZ)-polycarbonate tube (Beckmann, 355654) and spun for 1 hour at 100.000 g at 4° C. (33.500 rpm in Ti50.2, precooled). The supernatant was transferred again to a fresh 50 mL falcon tube, the protein concentration was determined by a Bradford assay (BioRad) and samples containing 50 mg of protein per aliquot were prepared. The samples were immediately used for experiments or frozen in liquid nitrogen and stored frozen at −80° C.
(§7) Cell lysate (approximately 50 mg protein per plate) was thawed in a water bath at room temperature and then stored on ice. To the thawed cell lysate 1×DP 0.8% NP40 buffer containing protease inhibitors (1 tablet for 25 mL buffer; EDTA-free protease inhibitor cocktail; Roche Diagnostics 1873580) was added in order to reach a final protein concentration of 10 mg/mL total protein. The diluted cell lysate was stored on ice. Mixed Molt4/Ramos lysate was prepared by combining one volume of Molt4 lysate and two volumes of Ramos lysate (ratio 1:2). […]

In another assay the target is T2, JAK3 (Homo sapiens, UniProt P52333).
T2 construct: endogenous in cells; host or cells: Molt4 (ATCC CRL-1582) and Ramos (ATCC CRL-1596) cells; mixed lysate 1:2
T2 sequence (P52333 1-1124): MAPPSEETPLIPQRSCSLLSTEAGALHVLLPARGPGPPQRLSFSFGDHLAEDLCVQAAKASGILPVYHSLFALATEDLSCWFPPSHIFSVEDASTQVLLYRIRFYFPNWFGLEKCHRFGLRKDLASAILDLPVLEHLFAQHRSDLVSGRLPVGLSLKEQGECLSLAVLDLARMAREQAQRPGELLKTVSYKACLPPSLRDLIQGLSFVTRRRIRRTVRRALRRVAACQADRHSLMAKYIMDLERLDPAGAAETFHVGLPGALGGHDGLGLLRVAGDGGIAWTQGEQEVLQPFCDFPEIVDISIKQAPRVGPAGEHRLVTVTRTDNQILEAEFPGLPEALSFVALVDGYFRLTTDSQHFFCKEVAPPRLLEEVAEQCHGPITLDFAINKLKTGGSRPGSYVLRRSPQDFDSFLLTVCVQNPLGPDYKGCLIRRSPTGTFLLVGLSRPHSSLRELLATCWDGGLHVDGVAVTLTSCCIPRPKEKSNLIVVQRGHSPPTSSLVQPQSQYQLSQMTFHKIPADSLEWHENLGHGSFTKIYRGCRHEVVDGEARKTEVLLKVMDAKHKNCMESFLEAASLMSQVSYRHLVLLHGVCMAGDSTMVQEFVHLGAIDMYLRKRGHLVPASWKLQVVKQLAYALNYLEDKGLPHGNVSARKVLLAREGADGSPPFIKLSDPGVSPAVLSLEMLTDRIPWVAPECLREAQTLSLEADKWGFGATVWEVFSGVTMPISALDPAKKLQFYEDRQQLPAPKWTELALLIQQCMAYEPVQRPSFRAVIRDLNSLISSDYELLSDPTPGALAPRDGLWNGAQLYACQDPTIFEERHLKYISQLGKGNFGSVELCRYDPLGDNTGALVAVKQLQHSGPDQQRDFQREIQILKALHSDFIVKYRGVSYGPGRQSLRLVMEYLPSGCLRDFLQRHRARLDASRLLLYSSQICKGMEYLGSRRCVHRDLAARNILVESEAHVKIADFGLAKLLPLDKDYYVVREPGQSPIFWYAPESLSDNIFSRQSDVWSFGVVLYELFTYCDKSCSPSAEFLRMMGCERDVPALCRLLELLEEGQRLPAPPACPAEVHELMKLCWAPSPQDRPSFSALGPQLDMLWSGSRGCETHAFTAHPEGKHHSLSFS
As to the kind of experiment: Kinobeads assay with immunodetection, JAK3. The conditions noted are these: for IC50: Kinobeads assay, mixed Molt4/Ramos lysate, read-out: Inhibition values (IC50) JAK3. On the procedure: as §1, §2, §3, §4, §5, §6, §7

For the next assay, the target named is T3, JAK1 (Homo sapiens, UniProt P23458).
T3 construct: endogenous in cells; host or cells: Molt4 (ATCC CRL-1582) and Ramos (ATCC CRL-1596) cells; mixed lysate 1:2
T3 sequence (P23458 whole entry): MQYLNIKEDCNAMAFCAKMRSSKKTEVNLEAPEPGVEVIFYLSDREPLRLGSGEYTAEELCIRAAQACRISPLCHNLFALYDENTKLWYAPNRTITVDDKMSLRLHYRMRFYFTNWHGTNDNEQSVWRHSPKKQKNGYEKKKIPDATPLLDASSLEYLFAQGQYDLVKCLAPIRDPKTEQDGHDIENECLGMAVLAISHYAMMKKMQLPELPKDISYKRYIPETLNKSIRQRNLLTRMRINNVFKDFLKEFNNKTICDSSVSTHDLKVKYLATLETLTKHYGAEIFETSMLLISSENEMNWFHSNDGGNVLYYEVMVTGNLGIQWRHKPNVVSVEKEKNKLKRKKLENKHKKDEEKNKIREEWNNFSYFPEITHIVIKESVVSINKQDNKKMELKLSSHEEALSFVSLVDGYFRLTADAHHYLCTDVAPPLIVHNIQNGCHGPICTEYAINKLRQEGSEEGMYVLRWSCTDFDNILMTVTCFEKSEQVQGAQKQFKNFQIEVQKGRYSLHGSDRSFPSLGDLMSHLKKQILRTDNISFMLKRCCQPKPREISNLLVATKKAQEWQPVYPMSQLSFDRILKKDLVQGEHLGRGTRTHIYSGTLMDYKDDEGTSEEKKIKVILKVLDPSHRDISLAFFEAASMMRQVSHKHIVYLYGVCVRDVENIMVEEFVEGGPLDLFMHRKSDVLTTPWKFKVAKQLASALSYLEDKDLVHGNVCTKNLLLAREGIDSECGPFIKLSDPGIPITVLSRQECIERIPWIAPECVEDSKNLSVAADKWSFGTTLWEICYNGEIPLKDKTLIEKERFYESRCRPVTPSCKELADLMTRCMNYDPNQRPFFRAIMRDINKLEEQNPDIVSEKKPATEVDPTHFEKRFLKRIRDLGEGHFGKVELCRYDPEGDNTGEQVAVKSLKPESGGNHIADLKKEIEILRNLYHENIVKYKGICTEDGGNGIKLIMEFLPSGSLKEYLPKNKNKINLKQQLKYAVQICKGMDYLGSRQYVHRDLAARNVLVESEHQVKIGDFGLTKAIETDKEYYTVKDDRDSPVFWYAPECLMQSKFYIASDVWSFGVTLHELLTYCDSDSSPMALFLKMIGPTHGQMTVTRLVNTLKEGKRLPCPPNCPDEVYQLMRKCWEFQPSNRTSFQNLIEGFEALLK
As to the kind of experiment: Kinobeads assay with immunodetection, JAK1. The conditions noted are these: for IC50: Kinobeads assay, mixed Molt4/Ramos lysate, read-out: Inhibition values (IC50) JAK1. On the procedure: as §1, §2, §3, §4, §5, §6, §7

In another assay the target is T4, TYK2 (Homo sapiens, UniProt P29597).
T4 construct: endogenous in cells; host or cells: Molt4 (ATCC CRL-1582) and Ramos (ATCC CRL-1596) cells; mixed lysate 1:2
T4 sequence (P29597 whole entry): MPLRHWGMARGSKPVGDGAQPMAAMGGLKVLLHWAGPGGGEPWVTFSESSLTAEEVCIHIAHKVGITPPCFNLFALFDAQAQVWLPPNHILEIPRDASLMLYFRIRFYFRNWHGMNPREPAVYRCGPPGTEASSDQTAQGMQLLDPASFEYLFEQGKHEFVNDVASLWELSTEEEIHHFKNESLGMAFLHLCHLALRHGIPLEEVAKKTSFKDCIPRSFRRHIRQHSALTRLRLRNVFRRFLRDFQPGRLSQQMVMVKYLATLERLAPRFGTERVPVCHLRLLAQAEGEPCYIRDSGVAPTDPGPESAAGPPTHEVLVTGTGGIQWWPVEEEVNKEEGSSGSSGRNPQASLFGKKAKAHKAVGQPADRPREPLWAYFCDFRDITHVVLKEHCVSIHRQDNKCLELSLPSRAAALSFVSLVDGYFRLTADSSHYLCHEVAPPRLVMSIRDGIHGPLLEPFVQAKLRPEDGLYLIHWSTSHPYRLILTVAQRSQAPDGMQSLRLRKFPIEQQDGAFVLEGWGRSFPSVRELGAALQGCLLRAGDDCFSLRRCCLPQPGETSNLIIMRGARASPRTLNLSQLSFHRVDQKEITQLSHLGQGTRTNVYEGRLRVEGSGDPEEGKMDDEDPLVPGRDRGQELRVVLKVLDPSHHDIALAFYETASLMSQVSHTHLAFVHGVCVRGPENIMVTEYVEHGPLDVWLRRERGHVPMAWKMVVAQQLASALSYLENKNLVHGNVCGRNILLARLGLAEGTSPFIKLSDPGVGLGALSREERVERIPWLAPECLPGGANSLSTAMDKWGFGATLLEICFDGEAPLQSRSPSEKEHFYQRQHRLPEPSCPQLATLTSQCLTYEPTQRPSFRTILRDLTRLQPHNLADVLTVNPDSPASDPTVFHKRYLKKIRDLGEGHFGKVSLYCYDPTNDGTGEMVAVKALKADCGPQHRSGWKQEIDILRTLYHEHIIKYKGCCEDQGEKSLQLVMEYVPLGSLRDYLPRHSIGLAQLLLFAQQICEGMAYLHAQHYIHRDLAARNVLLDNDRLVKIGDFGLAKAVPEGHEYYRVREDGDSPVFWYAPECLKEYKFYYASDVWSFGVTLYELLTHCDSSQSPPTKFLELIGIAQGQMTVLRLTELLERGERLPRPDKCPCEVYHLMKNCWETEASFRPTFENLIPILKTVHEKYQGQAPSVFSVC
In words: Kinobeads assay with immunodetection, TYK2. To be noted: for IC50: Kinobeads assay, mixed Molt4/Ramos lysate, read-out: Inhibition values (IC50) Tyk2. As to the method:
as §1, §2, §3, §4, §5, §6, §7

T1 sequence (O60674 whole entry): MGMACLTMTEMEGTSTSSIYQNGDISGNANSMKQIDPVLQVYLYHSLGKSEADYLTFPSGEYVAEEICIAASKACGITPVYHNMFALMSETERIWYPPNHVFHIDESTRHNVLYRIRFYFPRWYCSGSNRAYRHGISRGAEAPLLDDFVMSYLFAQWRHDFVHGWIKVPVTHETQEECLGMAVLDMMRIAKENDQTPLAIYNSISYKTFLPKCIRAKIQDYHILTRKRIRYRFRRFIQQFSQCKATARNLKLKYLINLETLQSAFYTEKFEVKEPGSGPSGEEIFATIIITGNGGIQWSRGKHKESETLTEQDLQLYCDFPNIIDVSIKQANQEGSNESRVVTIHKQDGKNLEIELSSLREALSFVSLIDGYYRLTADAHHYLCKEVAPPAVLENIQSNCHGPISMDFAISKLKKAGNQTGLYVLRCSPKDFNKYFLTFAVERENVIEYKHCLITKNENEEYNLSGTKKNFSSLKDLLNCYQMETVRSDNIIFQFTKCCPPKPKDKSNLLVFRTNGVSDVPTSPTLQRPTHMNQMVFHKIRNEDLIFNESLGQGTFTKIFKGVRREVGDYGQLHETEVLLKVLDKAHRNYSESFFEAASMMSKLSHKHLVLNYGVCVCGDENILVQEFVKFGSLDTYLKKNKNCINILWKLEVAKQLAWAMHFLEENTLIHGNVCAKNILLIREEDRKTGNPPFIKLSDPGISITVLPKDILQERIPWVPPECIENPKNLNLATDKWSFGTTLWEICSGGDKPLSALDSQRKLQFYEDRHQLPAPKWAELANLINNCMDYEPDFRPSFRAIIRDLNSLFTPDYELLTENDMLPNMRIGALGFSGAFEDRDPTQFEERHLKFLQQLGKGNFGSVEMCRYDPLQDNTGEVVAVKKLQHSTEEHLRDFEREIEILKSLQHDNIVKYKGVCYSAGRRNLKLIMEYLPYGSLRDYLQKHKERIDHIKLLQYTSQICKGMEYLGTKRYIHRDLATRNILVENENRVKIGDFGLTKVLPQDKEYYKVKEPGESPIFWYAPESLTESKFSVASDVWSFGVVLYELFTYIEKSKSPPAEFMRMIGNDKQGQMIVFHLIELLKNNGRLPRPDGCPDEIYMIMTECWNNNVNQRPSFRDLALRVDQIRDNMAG

With `OCCn1cc(Nc2ncc(Cl)c(NCC3CCNC3)n2)cn1` (stereo in doubt) [Example 79, (R)-2-(4-((5-chloro-4-((pyrrolidin-3-ylmethyl)amino)pyrimidin-2-yl)amino)-1H-pyrazol-1-yl)ethanol], the half-inhibitory concentration (IC50) on JAK2 is below 100 nM; at JAK3 it was 1000 to 10000 nM; at JAK1, 100 to 1000 nM; on TYK2, 100 to 1000 nM. Moreover, the “Selectivity ratio over JAK2, JAK1” value on JAK1 was “JAK1 = 39”.

In the case of `CC(=O)N1CCC[C@@H]1CNc1nc(Nc2cnn(C)c2)ncc1Cl` [Example 1, (R)-1-(2-(((5-chloro-2-((1-methyl-1H-pyrazol-4-yl)amino)pyrimidin-4-yl)amino)methyl)pyrrolidin-1-yl)ethanone], the IC50 on JAK2 is 1000 to 10000 nM; at JAK3, below 100 nM; on JAK1 it was 100 to 1000 nM; at TYK2, below 100 nM. The “Selectivity ratio over JAK2, JAK1” value on JAK1 is recorded as “JAK1 = 8”.

Turning to `CC(=O)N1CCC[C@@H]1CNc1nc(Nc2cnn(CCO)c2)ncc1Cl` [Example 2, (R)-1-(2-(((5-chloro-2-((1-(2-hydroxyethyl)-1H-pyrazol-4-yl)amino)pyrimidin-4-yl)amino)methyl)pyrrolidin-1-yl)ethanone], the IC50 at JAK2 is 100 to 1000 nM; on JAK3, below 100 nM; at JAK1, below 100 nM; on TYK2, below 100 nM. In addition, on JAK1, the “Selectivity ratio over JAK2, JAK1” value is reported as “JAK1 = 6”.

On to `C=CC(=O)N1CCC[C@@H]1CNc1nc(Nc2cnn(C)c2)ncc1Cl` [Example 3, (R)-1-(2-(((5-chloro-2-((1-methyl-1H-pyrazol-4-yl)amino)pyrimidin-4-yl)amino)methyl)pyrrolidin-1-yl)prop-2-en-1-one], for which the half-inhibitory concentration (IC50) on JAK2 fell in the range of 1000 to 10000 nM; on JAK3, 100 to 1000 nM; at JAK1, 100 to 1000 nM; on TYK2 it was 100 to 1000 nM. Moreover, on TYK2, the “Selectivity ratio over JAK2, Tyk2” value was “Tyk2 = 10”.

For `C=CC(=O)N1CCC[C@@H]1CNc1nc(Nc2cnn(CCO)c2)ncc1Cl` [Example 4, (R)-1-(2-(((5-chloro-2-((1-(2-hydroxyethyl)-1H-pyrazol-4-yl)amino)pyrimidin-4-yl)amino)methyl)pyrrolidin-1-yl)prop-2-en-1-one], the IC50 on JAK2 was 100 to 1000 nM; on JAK3 it was 100 to 1000 nM; at JAK1 it was below 100 nM; on TYK2, below 100 nM. Also, the “Selectivity ratio over JAK2, Tyk2” value at TYK2 is given as “Tyk2 = 8”.

With `Cn1cc(Nc2ncc(Cl)c(NC[C@H]3CCCN3S(C)(=O)=O)n2)cn1` [Example 5, (R)-5-chloro-N^2-(1-methyl-1H-pyrazol-4-yl)-N^4-((1-(methylsulfonyl)pyrrolidin-2-yl)methyl)pyrimidine-2,4-diamine], the half-maximal inhibitory concentration (IC50) on JAK2 is 100 to 1000 nM; on JAK3, below 100 nM; on JAK1 it was below 100 nM; at TYK2, below 100 nM. Also, on JAK1, the “Selectivity ratio over JAK2, JAK1” value is “JAK1 = 13”.

Regarding `CS(=O)(=O)N1CCC[C@@H]1CNc1nc(Nc2cnn(CCO)c2)ncc1Cl` [Example 6, (R)-2-(4-((5-chloro-4-(((1-(methylsulfonyl)pyrrolidin-2-yl)methyl)amino)pyrimidin-2-yl)amino)-1H-pyrazol-1-yl)ethanol], the half-inhibitory concentration (IC50) on JAK2 was 100 to 1000 nM; on JAK3, below 100 nM; on JAK1 it was below 100 nM; on TYK2 it was below 100 nM. At TYK2, the “Selectivity ratio over JAK2, Tyk2” value is recorded as “Tyk2 = 11”.

For the compound `C=CS(=O)(=O)N1CCC[C@@H]1CNc1nc(Nc2cnn(C)c2)ncc1Cl` [Example 7, (R)-5-chloro-N^2-(1-methyl-1H-pyrazol-4-yl)-N^4-((1-(vinylsulfonyl)pyrrolidin-2-yl)methyl)pyrimidine-2,4-diamine], the 50% inhibitory concentration (IC50) on JAK2 was 1000 to 10000 nM; at JAK3, below 100 nM; on JAK1, 100 to 1000 nM; at TYK2, 100 to 1000 nM. In addition, on JAK3 (JAK3 over JAK2), the “Selectivity ratio over JAK2, JAK3” value is given as “JAK3 = 100”.

As to `CC(=O)N1CCC[C@H]1CNc1nc(Nc2cnn(C)c2)ncc1Cl` [Example 8, (S)-1-(2-(((5-chloro-2-((1-methyl-1H-pyrazol-4-yl)amino)pyrimidin-4-yl)amino)methyl)pyrrolidin-1-yl)ethanone], the IC50 on JAK2 fell in the range of 1000 to 10000 nM; at JAK3, 100 to 1000 nM; at JAK1 it was 100 to 1000 nM; at TYK2, 100 to 1000 nM. Moreover, at JAK1, the “Selectivity ratio over JAK2, JAK1” value is “JAK1 = 17”.

With `CC(=O)N1CCC[C@H]1CNc1nc(Nc2cnn(CCO)c2)ncc1Cl` [Example 9, (S)-1-(2-(((5-chloro-2-((1-(2-hydroxyethyl)-1H-pyrazol-4-yl)amino)pyrimidin-4-yl)amino)methyl)pyrrolidin-1-yl)ethanone], the IC50 on JAK2 is 1000 to 10000 nM; at JAK3, 100 to 1000 nM; at JAK1, 100 to 1000 nM; on TYK2, 100 to 1000 nM. Besides, the “Selectivity ratio over JAK2, JAK1” value on JAK1 is on record as “JAK1 = 25”.

For the compound `C=CC(=O)N1CCC[C@H]1CNc1nc(Nc2cnn(C)c2)ncc1Cl` [Example 10, (S)-1-(2-(((5-chloro-2-((1-methyl-1H-pyrazol-4-yl)amino)pyrimidin-4-yl)amino)methyl)pyrrolidin-1-yl)prop-2-en-1-one], the half-inhibitory concentration (IC50) on JAK2 is above 10000 nM; on JAK3 it was 1000 to 10000 nM; at JAK1, 1000 to 10000 nM; on TYK2, 1000 to 10000 nM.
